Experimental data: article PMC10938783, “A novel pan-PI3K inhibitor KTC1101 synergizes with anti-PD-1 therapy by targeting tumor suppression and immune activation” (Molecular Cancer, 2024)

Experiments:
[1] = tested on: Tregs; experiment: T cell suppression assay (CFSE); assay type: cell-based, mouse
Method: Spleens from naive mice were isolated and ground through 70-μm filters to generate a single-cell suspension. After RBC lysis, single-cell suspensions were stained with CD3, CD8, CD4, CD25 or CD127 antibodies. Viable CD8^+ T cells (CD3^+CD8^+), CD4^+ T cells (CD3^+CD4^+), and Tregs (CD3^+CD4^+CD25^+CD127^low/−) from single-cell suspensions were sorted by FACS. Then T cells were labelled with […] in pre-warmed PBS for 10 min at 37 °C. The CFSE-labelled T cells were seeded in 96-well plates pre-coated with 10 μg/mL CD3 and 1 μg/mL CD28 antibodies and cultured in 1640 media with 10% FBS, 1 mM Sodium Pyruvate (Thermo, 11,360,070), 50 μM β-ME and 100 IU/mL IL2, as well as different concentrations of KTC1101 or solvent control. After 72 h, cells were harvested and the CFSE signal was measured by flow cytometry. Cell growth rate was calculated by the percentage of live, proliferated cell number at each drug concentration vs. solvent control.

[2] = tested on: BALB/c mice; experiment: Acute toxicity study; assay type: in vivo; conditions: symbols O/X not defined
Method: (§1) All mice care and experimental protocols were approved by the Ethical Committee of Tianjin Medical University (permit number: TMUaMEC 2023036). Preliminary testing was conducted on 6 groups of BALB/c mice (half male, half female, 18–22 g), fasted but not water-deprived for 12 h, and administered different doses of KTC1101 (200 to 6400 mg/kg). […] The LD50 was calculated based on the doses causing 0% and 100% mortality in animals. Subsequent testing was done using doses determined from the preliminary study. Each dose was administered to a single animal, with a 72-h interval between dosages. The administration continued until one of the following criteria was met: (a) three consecutive animals survived; (b) a transition from survival to death occurred in 5 out of 6 consecutive animals; (c) at least four animals were tested after the first transition, with an estimated LD50 range exceeding the critical value (2.5 times). The LD50 and its confidence interval were calculated, and the maximum likelihood method was used to determine the LD50 value using the AOT425StatPgm software.

[3] = Acute toxicity study; assay type: in vivo; conditions: both sexes, mouse, in vivo, oral; BALB/c mice, acute toxicity
Method: as §1

[4] = tested on: B16 tumors; experiment: B16 syngeneic model in C57BL/6 mice; assay type: in vivo, mouse
[5] = target: PI3Kδ (PIK3CD/PIK3R1) (Homo sapiens, UniProt O00329); experiment: Adapta kinase assay; assay type: biochemical
PI3Kδ (PIK3CD/PIK3R1), sequence (O00329 whole entry, canonical isoform): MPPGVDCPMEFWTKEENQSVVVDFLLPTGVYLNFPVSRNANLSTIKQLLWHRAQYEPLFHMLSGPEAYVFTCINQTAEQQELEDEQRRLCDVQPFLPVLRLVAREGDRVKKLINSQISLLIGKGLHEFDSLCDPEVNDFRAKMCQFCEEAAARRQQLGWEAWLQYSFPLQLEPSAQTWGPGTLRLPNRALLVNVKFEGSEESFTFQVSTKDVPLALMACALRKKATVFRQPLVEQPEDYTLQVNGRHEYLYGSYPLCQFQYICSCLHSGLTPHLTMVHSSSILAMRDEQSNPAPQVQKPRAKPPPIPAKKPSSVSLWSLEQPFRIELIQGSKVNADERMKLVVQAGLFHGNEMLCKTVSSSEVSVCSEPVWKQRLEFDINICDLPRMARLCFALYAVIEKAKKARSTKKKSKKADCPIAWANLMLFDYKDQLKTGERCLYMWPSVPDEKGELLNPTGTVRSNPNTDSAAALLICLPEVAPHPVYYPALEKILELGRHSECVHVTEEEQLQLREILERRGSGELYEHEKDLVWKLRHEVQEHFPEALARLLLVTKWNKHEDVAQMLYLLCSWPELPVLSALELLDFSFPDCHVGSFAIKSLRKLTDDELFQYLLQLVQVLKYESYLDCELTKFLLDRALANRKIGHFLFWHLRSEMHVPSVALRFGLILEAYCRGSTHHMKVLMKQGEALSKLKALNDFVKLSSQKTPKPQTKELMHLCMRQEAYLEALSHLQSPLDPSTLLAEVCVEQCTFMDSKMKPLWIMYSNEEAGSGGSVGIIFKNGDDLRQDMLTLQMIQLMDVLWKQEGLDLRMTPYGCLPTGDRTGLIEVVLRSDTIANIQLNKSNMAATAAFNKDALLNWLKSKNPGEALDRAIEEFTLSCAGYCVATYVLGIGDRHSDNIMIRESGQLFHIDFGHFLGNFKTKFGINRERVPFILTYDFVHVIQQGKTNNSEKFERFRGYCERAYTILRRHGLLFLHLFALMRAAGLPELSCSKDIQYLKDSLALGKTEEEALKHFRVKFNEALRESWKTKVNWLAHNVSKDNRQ
PI3Kδ (PIK3CD/PIK3R1), sequence (P27986 whole entry partner, canonical isoform): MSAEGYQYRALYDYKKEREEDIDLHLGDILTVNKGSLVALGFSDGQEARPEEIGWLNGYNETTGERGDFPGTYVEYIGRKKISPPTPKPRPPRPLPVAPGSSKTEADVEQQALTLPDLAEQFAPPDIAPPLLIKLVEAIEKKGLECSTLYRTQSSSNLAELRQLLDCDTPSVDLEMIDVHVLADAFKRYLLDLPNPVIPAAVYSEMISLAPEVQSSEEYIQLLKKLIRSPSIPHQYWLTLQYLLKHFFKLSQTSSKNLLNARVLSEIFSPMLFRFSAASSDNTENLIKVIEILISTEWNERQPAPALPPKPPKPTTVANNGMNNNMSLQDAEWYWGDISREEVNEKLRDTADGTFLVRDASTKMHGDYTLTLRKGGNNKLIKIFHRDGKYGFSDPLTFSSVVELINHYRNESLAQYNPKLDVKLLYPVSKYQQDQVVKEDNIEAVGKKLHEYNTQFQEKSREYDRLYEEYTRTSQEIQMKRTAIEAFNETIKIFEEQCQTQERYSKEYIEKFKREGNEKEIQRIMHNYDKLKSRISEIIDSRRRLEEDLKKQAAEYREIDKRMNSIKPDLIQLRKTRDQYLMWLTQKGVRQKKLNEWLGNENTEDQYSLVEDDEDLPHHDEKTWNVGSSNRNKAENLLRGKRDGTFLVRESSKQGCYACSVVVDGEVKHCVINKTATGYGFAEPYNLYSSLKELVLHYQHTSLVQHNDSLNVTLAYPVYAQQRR
Method: (§2) Procedures for the preparation of KTC1101 are described in supplemental data. To investigate the PI3K inhibitory efficacy of KTC1101, its impact on the kinase activity of PI3K isoforms was assessed using the Adapta kinase assay as previously reported. Initially, a dilution series of 2.5 µL KTC1101 or DMSO (control) was prepared and added to the respective wells of a 384-well plate. Subsequently, optimized 2.5 µL kinase solutions, including PIK3CA/PIK3R1, PIK3CB/PIK3R1, PIK3CG, and PIK3CD/PIK3R1, were introduced to each well. After adding the kinase solutions, 5 µL ATP and PIP2:PS lipid kinase substrate was introduced into each well and incubated for 1 h at room temperature. This step allows for the initiation and progression of the kinase reaction. Following the incubation, a detection solution (5 µL) was added to all the wells. This solution contained 30 mM EDTA to stop the kinase reaction, 6 nM Eu-labeled anti-ADP antibody, and a 3 × concentration of Alexa Fluor® 647 ADP tracer. The EDTA effectively terminates the kinase reaction, while the anti-ADP antibody and ADP tracer are crucial for the detection of ADP produced during the kinase reaction, which correlates with PI3K activity. The plate was then allowed to equilibrate for 30 min at room temperature, ensuring proper binding of the tracer and antibody to the generated ADP. Finally, the fluorescence of each well was measured using a Multi-Mode Microplate Reader (Spark, Tecan). To ascertain the selectivity of KTC1101 for PI3K isoforms and to rule out off-target effects, a kinase panel comprising 50 kinases was tested against KTC1101. This kinase profiling was conducted by Wuhan Heyan Biomedical Technology Co., Ltd.

[6] = target: PI3Kβ (PIK3CB/PIK3R1) (Homo sapiens, UniProt P42338); experiment: Adapta kinase assay; assay type: biochemical
PI3Kβ (PIK3CB/PIK3R1), sequence (P42338 whole entry): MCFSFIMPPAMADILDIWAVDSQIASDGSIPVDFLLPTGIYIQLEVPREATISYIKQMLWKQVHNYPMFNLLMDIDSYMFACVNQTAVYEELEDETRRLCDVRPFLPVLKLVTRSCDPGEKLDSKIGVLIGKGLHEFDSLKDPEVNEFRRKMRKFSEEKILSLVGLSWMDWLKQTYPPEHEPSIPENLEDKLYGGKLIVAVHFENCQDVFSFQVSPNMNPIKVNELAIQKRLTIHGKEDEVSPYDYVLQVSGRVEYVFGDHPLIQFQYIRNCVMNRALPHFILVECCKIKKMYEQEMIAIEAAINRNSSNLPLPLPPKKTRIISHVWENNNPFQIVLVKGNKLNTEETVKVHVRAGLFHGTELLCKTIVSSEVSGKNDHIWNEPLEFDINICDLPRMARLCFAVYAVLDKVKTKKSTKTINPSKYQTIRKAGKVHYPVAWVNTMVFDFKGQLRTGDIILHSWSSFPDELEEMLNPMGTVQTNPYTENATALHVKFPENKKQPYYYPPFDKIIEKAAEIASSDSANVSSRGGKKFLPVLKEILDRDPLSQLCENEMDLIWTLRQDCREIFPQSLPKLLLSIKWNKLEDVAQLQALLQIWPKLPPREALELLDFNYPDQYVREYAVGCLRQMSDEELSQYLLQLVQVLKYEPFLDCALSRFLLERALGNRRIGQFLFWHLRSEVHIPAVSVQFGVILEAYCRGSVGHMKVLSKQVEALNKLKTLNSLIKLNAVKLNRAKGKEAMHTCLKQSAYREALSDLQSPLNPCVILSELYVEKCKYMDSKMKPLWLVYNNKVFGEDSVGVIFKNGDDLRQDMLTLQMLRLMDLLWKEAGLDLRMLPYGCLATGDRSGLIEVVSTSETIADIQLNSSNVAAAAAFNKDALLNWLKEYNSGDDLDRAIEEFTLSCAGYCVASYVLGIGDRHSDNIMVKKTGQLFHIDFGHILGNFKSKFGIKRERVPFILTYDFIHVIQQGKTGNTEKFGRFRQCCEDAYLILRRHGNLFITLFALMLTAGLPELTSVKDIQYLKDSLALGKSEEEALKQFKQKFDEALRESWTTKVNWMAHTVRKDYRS
PI3Kβ (PIK3CB/PIK3R1), sequence (P27986 whole entry partner): as the sequence (P27986 whole entry partner, canonical isoform) above
Method: as §2

[7] = target: PI3Kγ (PIK3CG) (Homo sapiens, UniProt P48736); experiment: Adapta kinase assay; assay type: biochemical
PI3Kγ (PIK3CG), sequence (P48736 whole entry): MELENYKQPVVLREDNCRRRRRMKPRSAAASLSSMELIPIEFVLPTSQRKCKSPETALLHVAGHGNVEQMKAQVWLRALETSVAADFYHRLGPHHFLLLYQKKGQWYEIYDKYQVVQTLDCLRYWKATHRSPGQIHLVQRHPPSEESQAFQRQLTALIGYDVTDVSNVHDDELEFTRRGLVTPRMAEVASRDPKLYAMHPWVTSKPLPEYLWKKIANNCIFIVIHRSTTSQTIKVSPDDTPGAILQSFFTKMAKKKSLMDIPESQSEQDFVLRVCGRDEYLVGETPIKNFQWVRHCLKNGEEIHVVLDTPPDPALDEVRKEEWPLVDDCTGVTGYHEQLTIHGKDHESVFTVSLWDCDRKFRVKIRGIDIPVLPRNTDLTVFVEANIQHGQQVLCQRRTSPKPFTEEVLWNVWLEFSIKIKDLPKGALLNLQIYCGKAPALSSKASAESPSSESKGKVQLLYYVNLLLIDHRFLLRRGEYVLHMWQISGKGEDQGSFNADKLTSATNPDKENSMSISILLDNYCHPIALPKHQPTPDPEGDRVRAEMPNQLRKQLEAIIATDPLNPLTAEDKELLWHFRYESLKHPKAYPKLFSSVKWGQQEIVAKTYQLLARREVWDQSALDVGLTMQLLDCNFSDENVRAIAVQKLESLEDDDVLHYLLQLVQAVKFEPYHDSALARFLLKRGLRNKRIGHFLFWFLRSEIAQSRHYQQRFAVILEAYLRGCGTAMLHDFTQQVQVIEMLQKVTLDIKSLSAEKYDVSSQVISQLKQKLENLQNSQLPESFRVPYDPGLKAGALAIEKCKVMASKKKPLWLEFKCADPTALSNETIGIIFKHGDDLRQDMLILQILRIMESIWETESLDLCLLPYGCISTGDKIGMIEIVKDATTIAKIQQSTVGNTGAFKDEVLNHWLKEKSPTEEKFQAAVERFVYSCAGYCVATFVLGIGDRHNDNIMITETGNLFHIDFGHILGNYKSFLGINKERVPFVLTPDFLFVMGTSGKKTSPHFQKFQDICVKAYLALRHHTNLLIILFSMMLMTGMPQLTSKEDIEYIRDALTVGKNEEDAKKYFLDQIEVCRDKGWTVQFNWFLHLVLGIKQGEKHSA
Method: as §2

[8] = target: PI3Kα (PIK3CA/PIK3R1) (Homo sapiens, UniProt P42336); experiment: Adapta kinase assay; assay type: biochemical
PI3Kα (PIK3CA/PIK3R1), sequence (P42336 whole entry): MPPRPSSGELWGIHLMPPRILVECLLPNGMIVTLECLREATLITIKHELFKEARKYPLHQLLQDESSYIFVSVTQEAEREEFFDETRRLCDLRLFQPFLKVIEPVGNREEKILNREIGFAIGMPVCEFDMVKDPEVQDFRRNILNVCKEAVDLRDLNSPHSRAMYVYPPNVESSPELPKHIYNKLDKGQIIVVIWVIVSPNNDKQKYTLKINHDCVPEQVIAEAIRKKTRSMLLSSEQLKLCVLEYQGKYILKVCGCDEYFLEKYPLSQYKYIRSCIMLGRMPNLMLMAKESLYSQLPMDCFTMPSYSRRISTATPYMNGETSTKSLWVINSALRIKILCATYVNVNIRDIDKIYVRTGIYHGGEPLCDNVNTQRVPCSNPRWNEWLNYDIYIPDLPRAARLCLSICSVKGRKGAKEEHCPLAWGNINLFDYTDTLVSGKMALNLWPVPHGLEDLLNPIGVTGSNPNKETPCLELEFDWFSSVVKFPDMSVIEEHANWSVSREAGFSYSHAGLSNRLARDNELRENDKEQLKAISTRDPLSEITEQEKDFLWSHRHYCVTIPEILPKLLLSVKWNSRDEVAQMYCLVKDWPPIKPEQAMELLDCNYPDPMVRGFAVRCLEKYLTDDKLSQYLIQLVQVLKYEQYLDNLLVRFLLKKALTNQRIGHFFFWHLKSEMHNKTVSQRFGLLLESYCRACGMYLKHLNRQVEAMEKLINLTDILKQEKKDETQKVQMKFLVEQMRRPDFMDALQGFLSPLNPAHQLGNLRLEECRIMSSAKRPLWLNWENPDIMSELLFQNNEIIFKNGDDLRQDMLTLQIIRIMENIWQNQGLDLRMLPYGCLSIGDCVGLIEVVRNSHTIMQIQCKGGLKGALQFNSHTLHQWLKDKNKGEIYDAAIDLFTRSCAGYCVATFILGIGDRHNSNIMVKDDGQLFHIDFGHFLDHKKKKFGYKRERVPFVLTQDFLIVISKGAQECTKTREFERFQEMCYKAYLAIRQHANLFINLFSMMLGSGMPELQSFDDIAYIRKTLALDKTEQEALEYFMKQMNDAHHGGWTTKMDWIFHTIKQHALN
PI3Kα (PIK3CA/PIK3R1), sequence (P27986 whole entry partner): as the sequence (P27986 whole entry partner, canonical isoform) above
Method: as §2

[9] = Pharmacokinetic study of oral administration; assay type: in vivo; conditions: mouse, blood, BALB/c male mice, 100 mg/kg p.o.
Method: Chromatographic conditions employed a Waters BEH C18 column (2.1 mm × 50.0 mm, 1.7 µm) with a mobile phase comprising acetonitrile with 0.1% formic acid (A) and water with 0.1% formic acid (B), at a flow rate of 0.4 mL/min and a column temperature of 40°C. Gradient elution was used: 0–0.3 min, 20:80 → 20:80 (A:B); 0.3–2.5 min, 20:80 → 60:40 (A:B); 2.5–3.0 min, 60:40 → 100:0 (A:B); 3.0–3.01 min, 100:0 → 20:80 (A:B); 3.01–3.5 min, 20:80 → 20:80 (A:B). Mass spectrometry was performed using electrospray ionization (ESI) in positive ion mode, with a capillary voltage of 1 kV, a desolvation temperature of 450 °C, and a desolvation gas flow of 800 L/h. KTC1101 and internal standard phenacetin parameters were optimized for ionization and collision energies.
KTC1101 was prepared at 1 mg/mL concentration in acetonitrile, and further diluted to create a series of standard solutions. Blood samples were taken from BALB/c male mice (19 ± 2g) at various time points post-oral administration of KTC1101 (100 mg/kg). Samples were processed and analyzed using HPLC coupled with mass spectrometry. Data were calculated using Masslynx 4.1 and DAS 3.0 software.

In the case of `COc1cc(N)cc2c1nc(C(F)F)n2-c1nc(N2CCCOCC2)nc(N2CCOCC2)n1` [KTC1101, 2-(difluoromethyl)-4-methoxy-1-(4-morpholino-6-(1,4-oxazepan-4-yl)-1,3,5-triazin-2-yl)-1H-benzo[d]imidazol-6-amine], the “selective inhibition of Treg proliferation over CD8^+ T cells” value [1] is reported as “over a tenfold greater extent than CD8^+ T cells”, the IC50 ([1]; Mus musculus, T-cell, 72 h, read-out: IC50 proliferation) is reported as 2.58 nM and the Score ([2]; real dose 1750 mg/kg) is reported as “OOO”. For the same compound, the Score ([2]; real dose 2275 mg/kg) was “XXX”, the LD50 at 7 days [3] was 2140 mg/kg and the “tumor growth over 14 days” value ([4]; B16, 50 mg/kg, daily) was “comparably suppressed tumor growth”. The mouse body weight ([4]; B16, 100 mg/kg 3 days on/4 days off and 50 mg/kg daily, 14 days) was “without significant changes in mouse body weight”, the “tumor growth over 14 days” value ([4]; B16, 100 mg/kg, 3 days on/4 days off) was “comparably suppressed tumor growth” and the mouse survival ([4]; B16, intermittent regimen 100 mg/kg 3 days on/4 days off vs continuous) was “notably prolonged mouse survival”. It also gave an IC50 [5] of 1.22 nM, an IC50 [6] of 36.3 nM and an IC50 [7] of 17.1 nM. The IC50 [8] was 3.72 nM, the AUC(0-t) [9] was 9330 ng·h/mL and the Cmax [9] was 1660 ng/mL. The Tmax [9] was 0.67 h, the half-life [9] was 7.19 ± 4.07 h and the CL/F ([9]; read-out: CLz/F (converted)) was 179 mL/min/kg. It also gave a Vd/F ([9]; read-out: Vz/F) of 118 ± 85.5 L/kg.
